Experimental data taken from patent US7781393B2, “Methods for inhibiting tumor cell growth” (Dana-Farber Cancer Institute, Inc., priority 2004, dated 2010).
pIC50: −log10 of the molar value.

Tests used:
Format in all cases: cell-based, human
MM cell lines = test: MTT colorimetric survival assay, serum-stimulated MM cell lines
Method: (§1) Cell survival of IGF-1R inhibitor-treated cells was examined using the 3-(4,5-Dimethylthiazol-2-yl)-2,5-Diphenyltetrazolium Bromide (MTT) calorimetric assay. […] At the end of each treatment, cells were incubated with 1 mg/ml MTT for 4 hours at 37° C.; a mixture of isopropanol and 1N HCl (23:2, v/v) was then added under vigorous pipetting to dissolve the formazan crystals. Dye absorbance (A) in viable cells was measured at 570 nm, with 630 nm as a reference wavelength. Cell survival was estimated as a percentage of the value of untreated controls. All experiments were repeated at least three times, and each experimental condition was repeated at least in quadruplicate wells in each experiment.

CD138+ MM cells = test: Flow cytometric analysis of unpurified bone marrow mononuclear cells; details: 500 nM, 72 hours, 20% serum; BM stromal cells not suppressed
BM stromal cells (BMSCs) = test: Viability of bone marrow stromal cells (MTT); details: 500 nM for 72 hrs
Method: Primary MM patient samples were freshly isolated from bone marrow aspirates from patients undergoing diagnostic or restaging bone marrow aspirates under an IRB-approved protocol. MM cells were purified using custom-made RosetteSep cocktail of monoclonal antibodies (mAb's) (StemCell Technologies Inc, Vancouver, Canada) for negative selection of CD138^+ MM cells. The CD138^− fraction of the MM cell purification process was cultured in 20% FBS-supplemented media for isolation of the adherent bone marrow stromal cells. Peripheral blood B cells were isolated by ficoll-density centrifugation of peripheral blood samples from MM patients. […] […] At the end of each treatment, cells were incubated with 1 mg/ml MTT for 4 hours at 37° C.; a mixture of isopropanol and 1N HCl (23:2, v/v) was then added under vigorous pipetting to dissolve the formazan crystals. Dye absorbance (A) in viable cells was measured at 570 nm, with 630 nm as a reference wavelength. Cell survival was estimated as a percentage of the value of untreated controls. All experiments were repeated at least three times, and each experimental condition was repeated at least in quadruplicate wells in each experiment.

[1] = test system: VEGF secretion by myeloma cells and BMSCs; test: VEGF ELISA, MM cells and BMSCs alone and in co-culture; details: 500 nM for 24 hrs
Method: Flow cytometric analyses for IGF-1R, and IGF-2R were performed as previously described on a EPICS-XL-MCL flow cytometer (Beckman Coulter). Previously described protocols were applied for immunoblotting analyses; TRAP telomerase activity assay; 20S proteasome chymotryptic activity assay; DNA binding activity ELISAs for quantitative assessments of NF-κB and HIF-1a transcriptional activities. VEGF and IGF-1 ELISAs were performed according to manufacturer's instructions (R&D Systems, Minneapolis, Minn.).

MM-1S cells = test: In vitro sensitization of MM-1S cells to anti-cancer drugs; details: ADW-742 750 nM or α-IR3 2 μg/ml for final 24 hours
Method: Cells were cultured in the presence of 10% FBS, and results are expressed as mean ±SD of 3 independent experiments.
as §1

HIF-1α = HIF-1α DNA binding activity ELISA
Method: Flow cytometric analyses for IGF-1R, and IGF-2R were performed as previously described on a EPICS-XL-MCL flow cytometer (Beckman Coulter). Previously described protocols were applied for immunoblotting analyses; TRAP telomerase activity assay; 20S proteasome chymotryptic activity assay; DNA binding activity ELISAs for quantitative assessments of NF-κB and HIF-1a transcriptional activities. VEGF and IGF-1 ELISAs were performed according to manufacturer's instructions (R&D Systems, Minneapolis, Minn.). 20S proteasome chymotryptic activity assay was performed as described [Shringarpure 2003]. The transcriptional activity of DNA binding activity of NF-κB and HIF-1α was measured as previously reported. Libermann T A, et al., . Proc Natl Acad Sci USA; 2002 99: 14374-14379; Mitsiades N. et al., 2002, 99: 4079-4086; Mitsiades N. et al., 2002; Blood 99: 4525-4530 and Mitsiades N., et al 2003 Blood; 101: 2377-2380.

## Nc1ncnc2c1c(-c1cccc(OCc3ccccc3)c1)cn2[C@H]1C[C@H](CN2CCCC2)C1 [ADW-742, trans-5-(3-benzyloxy-phenyl)-7-(3-pyrrolidin-1-ylmethyl-cyclobutyl)-7H-pyrrolo[2,3-d]pyrimidin-4-ylamine]
MM cell lines; Homo sapiens, values generally in this range, 0-10 μM for 72 hours, read-out: IC50, serum-induced cell growth of MM cell lines
  pIC50: 6.30 to 7.00
MM cell lines; also primary tumor cells from MM patients with multi-drug resistant disease
  activity against MM cell lines with known resistance to conventional or investigational anti-cancer agents: active
CD138+ MM cells
  CD138+ population of malignant cells: significant suppression
BM stromal cells (BMSCs)
  viability of BM stromal cells: does not significantly affect
[1]
  constitutive and co-culture-induced secretion of VEGF: suppresses
MM-1S cells; dexamethasone 0.1 μM 72 hrs
  sensitivity of MM-1S cells to dexamethasone: enhances the sensitivity
MM-1S cells; doxorubicin 50 ng/mL 48 hrs
  sensitivity of MM-1S cells to doxorubicin: enhance the sensitivity
MM-1S cells; melphalan 1 μM 48 hrs
  sensitivity of MM-1S cells to melphalan: enhance the sensitivity
HIF-1α
  IGF-1-induced HIF-1α activity: suppress
